Assay results as given in patent publication US10975352B2, “Methods of enhancing cell survival of stem cells” (The Scripps Research Institute, priority 2008, dated 2021).

Tests used:
[1] = system: primary human pancreatic islets/beta cells; assay: Cell death of dispersed primary human pancreatic islets/beta cells; assay type: cell-based; conditions: plate coated with matrigel or laminin; 1-2 mM in media
Experimental: For example, the inventors dispersed primary human pancreatic islets/beta cells plated as single cells onto a tissue culture plate that was coated with matrigel or laminin. […] Accordingly, in some embodiments, a compound of the present invention is administered to an individual in need of pancreatic beta and/or islet cells, wherein administration of the compound results in an increase in the number of beta or islet cells in the individual.

E-cadherin [2] = assay: Endocytosis assay; assay type: cell-based, human
Experimental: hESCs were incubated with 1.5 mg/ml sulfosuccinimidyl 2-(biotinamido) ethyl-dithioproprionate (sulfo-NHS-SS-biotin) (Pierce Chemical Co.) on ice, followed by washing and quenching. Endocytosis of E-cadherin was initiated by Ca^2+ depletion and 37° C. incubation. Cells were then incubated in two 20-min washes of glutathione solution (60 mM glutathione, 0.83 M NaCl, with 0.83 M NaOH and 1% BSA added before use) at 0° C. which removed all cell surface biotin groups. Remaining biotinylated proteins were sequestered inside cells by endocytosis and were therefore protected from glutathione stripping. Biotinylated proteins were recovered on streptavidin beads and analyzed by SDS-PAGE. E-Cadherins were detected by immunoblotting. Total level of surface E-cadherin before endocytosis was used as reference.

[3] = system: E-cadherins, EGFR1 and ERB2; assay: Immunoprecipitation of E-cadherins with EGFR1 and Erb2; assay type: cell-based, human
Source text: Interplay between physical/structural environment and growth factor plays a very important role in cell fate regulation (Comoglio, P. M., Boccaccio, C., & Trusolino, L., Curr Opin Cell Biol 15 (5):565-571 (2003)). To examine whether growth factors are involved in integrin-mediated hESC survival, we treated dissociated hESCs with Tzv or Ptn together with individual highly specific growth factor receptor inhibitors. […] Similarly inhibition of FGFR, IGFR, EGFR1 or Erb2 also greatly abolished Tzv-induced hESC survival in suspension culture.
(§1) ALP detection kit and integrin antibodies were from Chemicon. AG825 (Erb2 inhibitor), AG1478 (EGFR inhibitor), PPP (IGFR1 inhibitor) were purchased from Calbiochem. Antibodies raised against the intracytoplasmic tail of E-cadherins (Transduction Laboratories, Lexington, Ky.) were used for immunoprecipitation. The antibody TS2/16 was from Pierce. Antibodies to the extracellular domain of E-cadherin molecule were from Zymed (Carlsbad). Antibodies against extracellular signal-regulated kinase/MAPK, EGFR1, ERB2, GADPH and phosphorylated form of AKT were from Cell Signaling. Mouse monoclonal anti-phosphotyrosine (4G-10 clone) was from Upstate Biotechnology. Ptn and Tzv were added to culture medium at 2 μM.

hESCs [4] = assay: ALP positive colony formation / low-density survival assay of dissociated hESCs on Matrigel; assay type: cell-based, human; conditions: adherent culture (e.g. Matrigel-coated plate)
Experimental: Human ESC lines H1, HUES7 and HUES9 were cultured on irradiated MEF feeder cells in DMEM-F12 supplemented with 2 mM L-glutamine, lx nonessential amino acids, 20% serum replacement (Invitrogen) and 10 ng/ml basic Fibroblast growth factor (Invitrogen). Chemically-defined and feeder-free hESC culture was described previously (Yao, S. et al., Proc Natl Acad Sci USA 103 (18):6907-6912 (2006)). Briefly, hESCs were grown on Matrigel-coated tissue culture plates in N2B27-CDM (DMEM-F12 supplemented with 1×N2 supplements, lx B27 supplements, 2 mM L-glutamine, 0.11 mM 2-mercaptoethanol, lx nonessential amino acids, and 0.5 mg/ml BSA (fraction V)) and 20 ng/ml bFGF. Human ESCs were passaged every 5-6 days with 0.05% trypsin.
For clonal survival assays, single hESCs were diluted to clonal density and plated onto 96-well Matrigel-coated plate. For low-density survival assays, 500 cells were plated onto 96-well Matrigel-coated plate. To visualize hESC colonies, cultures were fixed in 4% paraformaldehyde in PBS for 5 min, washed once in PBS, then stained for alkaline phosphatase activity as described in manufacturer's instructions. ALP positive colonies were counted on an inverted microscope.
as §1, with “μM. […]” for “μM.”

E-cadherin [5] = assay: E-cadherin expression in hESCs after trypsin dissociation (Western blot, flow cytometry, RT-PCR); assay type: cell-based, human
Source text: We then examined E-cadherin expression in hESCs after trypsin dissociation. […] This observation was consistent with the report that the extracellular region of E-cadherin has an endoproteolytic cleavage site near the transmembrane domain (Damsky, C. H. et al., Cell 34 (2):455-466 (1983)). […] Therefore, Tzv is likely to affect cell adhesion by modulating cell surface level of E-cadherins. […] It is likely that Tzv exerts its effect through stabilization of E-cadherin on the cell surface.
To assess the expression of E-cadherin, activated integrin and SSEA4, dissociated cells (3×10^5) were washed with PBS and resuspended in PBS containing 2% goat serum. Cells were then incubated with the appropriate antibody for 1 h at 4° C., washed with the blocking solution, and labeled with FITC-conjugated secondary antibody for 30 min at 4° C. Cells were then washed and analyzed on a FACS Calibur flow cytometer.

stem cells = assay: Survival and anti-differentiation of stem cells ex vivo; assay type: cell-based; conditions: human and mouse embryonic, neural, skin, mesenchymal, hematopoietic, stromal and epithelial stem cells; contact immediately after isolation
Source text: In some embodiments, the invention provides methods of promoting survival and anti-differentiation in stem cells ex-vivo.

hESCs [6] = assay: Cell death analysis of dissociated hESCs in suspension culture; assay type: cell-based, human
Source text: hESCs are known to be difficult in forming embryoid bodies (EBs) in suspension culture after single cell dissociation due to extensive cell death. Thus, we also tested whether Tzv or Ptn could promote survival of dissociated hESCs in suspension. […] Because cell aggregation is most often mediated through cell-cell adhesions and E-cadherin is the primary cell-cell adhesion molecule, as well as highly expressed in hESCs (Eastham, A. M. et al., Cancer Res 67 (23): 11254-11262 (2007)), we tested the effect of a specific E-cadherin blocking antibody on multicellular aggregate formation.
The hESCs under different treatments were dissociated by trypsin and fixed by 4% paraformaldehyde. And the staining was carried out according to the manufacturer's instructions (MBL Laboratories, Watertown, Mass.). After staining, samples were analysed by flow cytometry using a FACS Calibur flow cytometer (BD).

[7] = system: epithelial to mesenchymal transition/EMT; assay: Induction of MET / inhibition of EMT; assay type: cell-based

O=C(NCc1ccccc1)c1csc(Nc2ccncn2)n1 [Tzv, N-benzyl-2-(pyrimidin-4-ylamino)thiazole-4-carboxamide]
cell death of single primary beta cells [1]: cell death was inhibited
internalization of E-cadherins (E-cadherin [2]): significantly blocked
binding of E-cadherins to EGFR1 and ERB2 [3]: induced binding of E-cadherins to EGFR1 and ERB2
survival of dissociated hESCs in adherent culture (hESCs [4]): greatly improved survival
cell surface E-cadherins (E-cadherin [5]; flow cytometry): significantly increased
E-cadherin transcripts vs mock controls (E-cadherin [5]; semiquantitative RT-PCR): comparable amounts
full-length E-cadherin expression after trypsin dissociation (E-cadherin [5]; time-course Western blot): significantly increased
survival and anti-differentiation of stem cells (stem cells): effective in promoting survival and anti-differentiation
survival of dissociated hESCs in suspension culture (hESCs [6]): greatly improved survival
MET induction and EMT inhibition [7]: can induce MET (the reverse of EMT) and inhibit EMT
